In PubChem BioAssay (NCI) one finds GI50 and TGI data, which are given here for 18 molecules.

SMILES strings stand for the structures.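 How tested: cells in 96-well plates exposed to compound for 48 hours at five concentrations. The concentration for 50% growth inhibition is given as GI50. TGI is the concentration that stops growth completely.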 Some results are limits rather than exact numbers.

Test systems include HOP-92 NSCLC; OVCAR-5 ovarian; SK-MEL-28 melanoma; UO-31 renal; M14 melanoma; A498 renal; CAKI-1 renal; K-562 leukemia; HOP-18 NSCLC; SNB-78 CNS; DLD-1 colon; KM20L2 colon.
What all share (assay): NCI anticancer screen, dose series, 48 h

Consider `COc1ccc(-c2nn(-c3ccc(NC(=O)Nc4ccc(Cl)c(Cl)c4)cc3)cc2-c2ccncc2)cc1Cl`, for which the GI50 in the experiment with HOP-92 NSCLC is 1.82 µM; in the experiment on OVCAR-5 ovarian, 2.8 µM; in the experiment with SK-MEL-28 melanoma it was 2.7 µM; with UO-31 renal, 1.51 µM; in the experiment with M14 melanoma, 1.79 µM; in the experiment on A498 renal, 1.75 µM. In addition, the values for the GI50 in the experiment on CAKI-1 renal and in the experiment on K-562 leukemia were 1.95 µM and 1.43 µM, respectively. Also, the TGI was 5.72 µM with HOP-92 NSCLC; more than 100 µM in the experiment with OVCAR-5 ovarian; 68.2 µM in the experiment on SK-MEL-28 melanoma; more than 100 µM in the experiment with UO-31 renal; 5.04 µM in the experiment with M14 melanoma; 8.04 µM with A498 renal. The results for the TGI with CAKI-1 renal and with K-562 leukemia were 15.4 µM and more than 100 µM, respectively.
As to `Nc1cc(S(=O)(=O)O)cc2cc(S(=O)(=O)O)c(N=Nc3ccc(-c4ccc(N=Nc5c(S(=O)(=O)O)cc6cc(S(=O)(=O)O)cc(N)c6c5O)cc4)cc3)c(O)c12`, the TGI in the experiment on HOP-92 NSCLC, in the experiment on OVCAR-5 ovarian, in the experiment on SK-MEL-28 melanoma, with HOP-18 NSCLC, in the experiment on UO-31 renal and in the experiment with SNB-78 CNS was more than 100 µM in each case. Further, the TGI with A498 renal, in the experiment on DLD-1 colon, in the experiment on K-562 leukemia and in the experiment on KM20L2 colon was more than 100 µM in each case.
`C/C1=N\NC(=O)c2ccccc2C(=O)N/N=C(\C)c2cccc1n2.O=[N+]([O-])[O-].[Zn+2]`: the TGI with OVCAR-5 ovarian, in the experiment on SK-MEL-28 melanoma, with HOP-18 NSCLC, with UO-31 renal, in the experiment on SNB-78 CNS and in the experiment on M14 melanoma was more than 100 µM in each case. Further, the TGI with A498 renal, with CAKI-1 renal, with DLD-1 colon, in the experiment on K-562 leukemia and with KM20L2 colon was more than 100 µM each time.
Regarding `O=Nc1ccc(O)c2ncccc12`, the TGI in the experiment on HOP-92 NSCLC worked out at 11.9 µM; with OVCAR-5 ovarian, 32.5 µM; in the experiment on SK-MEL-28 melanoma it was 17.3 µM; in the experiment with HOP-18 NSCLC it was 51.8 µM; with UO-31 renal, 13.5 µM; with SNB-78 CNS it was 11.4 µM. The TGI in the experiment with M14 melanoma is 20.7 µM; in the experiment on A498 renal it was 42.4 µM; with CAKI-1 renal, 31.1 µM; in the experiment on DLD-1 colon, 25.3 µM; in the experiment with K-562 leukemia, more than 100 µM; in the experiment on KM20L2 colon it was 89.9 µM.
Take `O=C(O)CC(C(=O)O)C1c2ccccc2-c2ccccc21` (centres undefined): the TGI with SK-MEL-28 melanoma, with UO-31 renal, with M14 melanoma, with A498 renal, in the experiment with CAKI-1 renal and in the experiment on K-562 leukemia was more than 100 µM throughout.
In the case of `CC(C)=CCc1c(O)ccc2c1OC1c3ccc(O)c(CC=C(C)C)c3OCC21` (centres undefined), the TGI was more than 100 µM in the experiment with HOP-92 NSCLC; 27.1 µM with OVCAR-5 ovarian; 28.7 µM in the experiment on SK-MEL-28 melanoma; 33.3 µM with HOP-18 NSCLC; 24 µM with UO-31 renal; 33 µM in the experiment with SNB-78 CNS. In addition, the TGI was found to be 25 µM in the experiment with A498 renal; 25 µM in the experiment with CAKI-1 renal; 18.9 µM with DLD-1 colon; 25.3 µM with K-562 leukemia; 34 µM in the experiment with KM20L2 colon.
With `O=[N+]([O-])c1ccc(/C=N\Nc2ccc([N+](=O)[O-])cn2)cc1`, the TGI in the experiment with HOP-92 NSCLC, in the experiment with OVCAR-5 ovarian, in the experiment with SK-MEL-28 melanoma, in the experiment on UO-31 renal, in the experiment with M14 melanoma and with K-562 leukemia was more than 100 µM in each case.
Regarding `c1ccc(-n2cnnc2-c2nsc3ccccc23)cc1`, the TGI with HOP-92 NSCLC, in the experiment on OVCAR-5 ovarian, in the experiment on SK-MEL-28 melanoma, in the experiment with HOP-18 NSCLC, in the experiment with UO-31 renal and with SNB-78 CNS was more than 100 µM in each case. Further, the TGI in the experiment on M14 melanoma, in the experiment on K-562 leukemia and in the experiment on KM20L2 colon was more than 100 µM each time.
As to `COc1cc(C(C)(C)C)cc(OC)c1C(O)(c1c(OC)cc(C(C)(C)C)cc1OC)c1c(OC)cc(C(C)(C)C)cc1OC`, the GI50 in the experiment with OVCAR-5 ovarian is 0.327 µM; in the experiment with UO-31 renal it was 0.241 µM; in the experiment with M14 melanoma, 0.381 µM; with A498 renal it was 0.477 µM. The TGI in the experiment on OVCAR-5 ovarian worked out at 1.02 µM; in the experiment with UO-31 renal, 0.745 µM; with M14 melanoma, 1.13 µM; with A498 renal, 2.53 µM.
Regarding `CN1CCC(C(=O)NNc2ccccc2)CC1`, the TGI in the experiment with HOP-92 NSCLC is more than 100 µM; in the experiment on OVCAR-5 ovarian, more than 41.6 µM; in the experiment with SK-MEL-28 melanoma, more than 88.1 µM; with HOP-18 NSCLC, more than 100 µM; in the experiment with UO-31 renal, 24.4 µM; in the experiment with SNB-78 CNS, more than 100 µM. In addition, the TGI in the experiment with M14 melanoma was more than 88.4 µM; in the experiment with A498 renal it was more than 100 µM; in the experiment on CAKI-1 renal, more than 100 µM; in the experiment with DLD-1 colon it was more than 100 µM; in the experiment on KM20L2 colon, more than 33.6 µM.
As to `COc1ccc2[nH]c3c([N+](=O)[O-])ccc(Cl)c3c(=O)c2c1`, the TGI was 29.7 µM in the experiment on HOP-92 NSCLC; more than 58 µM in the experiment on OVCAR-5 ovarian; 98.1 µM in the experiment on SK-MEL-28 melanoma; 35.5 µM in the experiment with UO-31 renal; 35.9 µM in the experiment with M14 melanoma; more than 100 µM with A498 renal. Moreover, the TGI is 49.5 µM in the experiment on CAKI-1 renal and 13.2 µM with K-562 leukemia.
Turning to `N=C(N)c1ccc(-c2ccc(-c3cncc4ccccc34)s2)cc1F`, the GI50 with OVCAR-5 ovarian was 1.6 µM; in the experiment on SK-MEL-28 melanoma it was 1.75 µM; in the experiment with UO-31 renal, 1.77 µM; in the experiment with M14 melanoma, 1.8 µM; in the experiment on A498 renal it was 1.06 µM; with CAKI-1 renal, 1.52 µM. Further, the TGI was 3.1 µM in the experiment on OVCAR-5 ovarian; 3.41 µM with SK-MEL-28 melanoma; 3.41 µM in the experiment with UO-31 renal; 3.4 µM in the experiment on M14 melanoma; 2.5 µM with A498 renal; 2.91 µM in the experiment on CAKI-1 renal.
Turning to `C=C1C(=O)OC2/C=C(\C)C(=O)CC3OC(C)(C)OC3(C)CC(OC(=O)/C(C)=C/C)C12` (centres undefined), the TGI with HOP-92 NSCLC is 38.1 µM; in the experiment with OVCAR-5 ovarian, 47.2 µM; with SK-MEL-28 melanoma, 86.5 µM; in the experiment on UO-31 renal, 29.3 µM; with M14 melanoma, more than 70.3 µM; in the experiment with A498 renal, 54.4 µM. In addition, the values for the TGI in the experiment on CAKI-1 renal and with K-562 leukemia were 10.3 µM and more than 60.9 µM, respectively.
For the molecule `Cc1ccc(P(c2ccc(C)cc2)c2ccc(C)cc2)cc1`, the TGI with HOP-92 NSCLC came to 20.8 µM; in the experiment with OVCAR-5 ovarian, 61.1 µM; with SK-MEL-28 melanoma, 56 µM; with UO-31 renal, 4.54 µM; with M14 melanoma, 50.3 µM; in the experiment with A498 renal, 79.3 µM. Besides, the values for the TGI with CAKI-1 renal and in the experiment on K-562 leukemia were 98.5 µM and more than 100 µM, respectively.
Regarding `OC(Cc1ccccc1)(Cc1ccccc1)c1ccccc1`, the TGI in the experiment on HOP-92 NSCLC was determined as 32.2 µM; with OVCAR-5 ovarian, 38 µM; with SK-MEL-28 melanoma, 47.3 µM; in the experiment with UO-31 renal, 32.4 µM; with M14 melanoma, 33.3 µM; in the experiment on A498 renal it was 34.1 µM. For the same molecule, the TGI with CAKI-1 renal was 47.7 µM; in the experiment with K-562 leukemia, more than 100 µM.
Take `C=C(C)C(=O)OC1C(C(C)CCCO)=C(CO)CC2OC(=O)C(=C)C21` (centres undefined): the TGI in the experiment with HOP-92 NSCLC turned out to be 44.2 µM; with OVCAR-5 ovarian, 54.3 µM; with SK-MEL-28 melanoma, 49.1 µM; with M14 melanoma, 33.8 µM; in the experiment on A498 renal it was 36.5 µM; in the experiment with CAKI-1 renal, 31.3 µM. In the experiment on K-562 leukemia, this molecule showed a TGI of 49.4 µM.
For the molecule `CC(C)(C)C1(c2ccc(C3(c4ccccc4)Oc4ccccc4S3)[nH]2)Oc2ccccc2S1` (centres undefined), the TGI in the experiment on HOP-92 NSCLC, in the experiment on OVCAR-5 ovarian, in the experiment with HOP-18 NSCLC, in the experiment on UO-31 renal, in the experiment with SNB-78 CNS and in the experiment on M14 melanoma was more than 100 µM in each case. Further, the TGI in the experiment on CAKI-1 renal, in the experiment with DLD-1 colon, in the experiment with K-562 leukemia and in the experiment with KM20L2 colon was more than 100 µM in each case.
`C=C1CC23CCC4C(C)(C(=O)O)CCCC4(C)C2CCC1C3` (centres undefined): the TGI was 94.3 µM in the experiment with HOP-92 NSCLC; more than 100 µM in the experiment on OVCAR-5 ovarian; more than 100 µM with SK-MEL-28 melanoma; 88.2 µM in the experiment on UO-31 renal; more than 100 µM in the experiment with M14 melanoma; more than 100 µM in the experiment with A498 renal. Moreover, the TGI in the experiment with CAKI-1 renal and with K-562 leukemia was more than 100 µM each time.
